# Laboratory results reported in US20260191838A1, “COMBINATIONS COMPRISING A MENIN-MLL INHIBITOR AND A BCL-2 INHIBITOR” (JANSSEN PHARMACEUTICA NV, priority 2022, published 2026).
# Test system: MOLM-13 (KMT2A-r) cell line
# Assay: In vitro proliferation (spheroid confluence, Incucyte), Compound 51 with venetoclax and optionally azacitidine, MOLM-13
# Assay type: cell-based, human
# Experimental: 3b) In Vitro Proliferation—Menin-MLL Inhibitor in Combination with Venetoclax and Optionally, Azacitidine
# The effect of Compound 51, alone or in combination with venetoclax, or in combination with venetoclax+azacitidine, was determined in proliferation assays using the MOLM-13 (KMT2A-r) cell line.
# MOLM-13 cells were seeded in 96-well, round-bottom, ultra-low attachment plates. The following dilution series were used: Compound 51 at an initial concentration of 1 μM, followed by a 5- or 6-point, 4-fold serial dilution series; azacitidine at an initial concentration of 25 μM, followed by a 6-point, 5-fold serial dilution series; and venetoclax at an initial concentration of 3 μM, followed by a 5- or 6-point, 5-fold serial dilution series. In the combination treatments that included venetoclax, venetoclax was added to the cells 4 days after treatment with Compound 51 and/or azacitidine was initiated. The triplet combination of Compound 51, in a checkerboard titration design with azacitidine+venetoclax, was tested at the same concentrations.
# The optimal cell seeding number (500 cells/well) was chosen based on growth curves to ensure linear growth throughout the entire experiment. The DMSO content was normalized to 0.3% and cells were incubated for 8 days at 37° C., 5% CO2. Spheroid-like growth was monitored in real-time by non-invasive live-cell imaging using the 4× objective of the Incucyte ZOOM live cell imaging system (Essen BioScience), and images were acquired on Day 8. The percent confluence, as a measure of spheroid size, was determined using an integrated analysis tool that is part of the Incucyte ZOOM software “IncuCyte ZOOM 2016B” (Essen BioScience). The percent confluence from the DMSO well was used as baseline response. Each experiment contained 4 replicates of each condition and the experiment was performed 3 times. Potential combination effects were analyzed for synergy using an R-based Biochemically Intuitive Generalized Loewe (BIGL) model implemented with a highest single agent (HSA) null model (Van der Borght 2017).
smiles,measurement,setting,value
CC(=O)N1CCC(CN2CC[C@@H](Cc3cn(-c4ccc(F)cc4C(=O)N(C)C(C)C)c4cncc(C)c34)C2)CC1 [Compound 51],"Effect size (BIGL, HSA null model)","doublet: Compound 51 0.0002 μM, Venetoclax 0.0003 μM",0.02
same,"Effect size (BIGL, HSA null model)","doublet: Compound 51 0.0002 μM, Venetoclax 0.0016 μM",0.01
same,"Effect size (BIGL, HSA null model)","doublet: Compound 51 0.0002 μM, Venetoclax 0.008 μM",0.05
same,"Effect size (BIGL, HSA null model)","doublet: Compound 51 0.0002 μM, Venetoclax 0.04 μM",0.02
same,"Effect size (BIGL, HSA null model)","doublet: Compound 51 0.0002 μM, Venetoclax 0.2 μM",0.08
same,"Effect size (BIGL, HSA null model)","doublet: Compound 51 0.0002 μM, Venetoclax 1 μM",−0.05
same,"Effect size (BIGL, HSA null model)","doublet: Compound 51 0.001 μM, Venetoclax 0.0003 μM",0.01
same,"Effect size (BIGL, HSA null model)","doublet: Compound 51 0.001 μM, Venetoclax 0.0016 μM",0.03
same,"Effect size (BIGL, HSA null model)","doublet: Compound 51 0.001 μM, Venetoclax 0.008 μM",0.02
same,"Effect size (BIGL, HSA null model)","doublet: Compound 51 0.001 μM, Venetoclax 0.04 μM",0.00
same,"Effect size (BIGL, HSA null model)","doublet: Compound 51 0.001 μM, Venetoclax 0.2 μM",0.05
same,"Effect size (BIGL, HSA null model)","doublet: Compound 51 0.001 μM, Venetoclax 1 μM",−0.05
same,"Effect size (BIGL, HSA null model)","doublet: Compound 51 0.004 μM, Venetoclax 0.0003 μM",0.05
same,"Effect size (BIGL, HSA null model)","doublet: Compound 51 0.004 μM, Venetoclax 0.0016 μM",0.04
same,"Effect size (BIGL, HSA null model)","doublet: Compound 51 0.004 μM, Venetoclax 0.008 μM",0.04
same,"Effect size (BIGL, HSA null model)","doublet: Compound 51 0.004 μM, Venetoclax 0.04 μM",−0.03
same,"Effect size (BIGL, HSA null model)","doublet: Compound 51 0.004 μM, Venetoclax 0.2 μM",0.40
same,"Effect size (BIGL, HSA null model)","doublet: Compound 51 0.004 μM, Venetoclax 1 μM",−0.09
same,"Effect size (BIGL, HSA null model)","doublet: Compound 51 0.0156 μM, Venetoclax 0.0003 μM",−0.04
same,"Effect size (BIGL, HSA null model)","doublet: Compound 51 0.0156 μM, Venetoclax 0.008 μM",−0.27
same,"Effect size (BIGL, HSA null model)","doublet: Compound 51 0.0156 μM, Venetoclax 0.04 μM",−0.42
same,"Effect size (BIGL, HSA null model)","doublet: Compound 51 0.0156 μM, Venetoclax 0.2 μM",−0.24
same,"Effect size (BIGL, HSA null model)","doublet: Compound 51 0.0156 μM, Venetoclax 1 μM",−0.18
same,"Effect size (BIGL, HSA null model)","doublet: Compound 51 0.0625 μM, Venetoclax 0.0003 μM",−0.01
same,"Effect size (BIGL, HSA null model)","doublet: Compound 51 0.0625 μM, Venetoclax 0.0016 μM",−0.04
same,"Effect size (BIGL, HSA null model)","doublet: Compound 51 0.0625 μM, Venetoclax 0.008 μM",−0.12
same,"Effect size (BIGL, HSA null model)","doublet: Compound 51 0.0625 μM, Venetoclax 0.04 μM",−0.15
same,"Effect size (BIGL, HSA null model)","doublet: Compound 51 0.0625 μM, Venetoclax 0.2 μM",−0.15
same,"Effect size (BIGL, HSA null model)","doublet: Compound 51 0.0625 μM, Venetoclax 1 μM",−0.16
same,"Effect size (BIGL, HSA null model)","doublet: Compound 51 0.25 μM, Venetoclax 0.0003 μM",0.00
same,"Effect size (BIGL, HSA null model)","doublet: Compound 51 0.25 μM, Venetoclax 0.0016 μM",0.11
same,"Effect size (BIGL, HSA null model)","doublet: Compound 51 0.25 μM, Venetoclax 0.008 μM",−0.05
same,"Effect size (BIGL, HSA null model)","doublet: Compound 51 0.25 μM, Venetoclax 0.04 μM",−0.07
same,"Effect size (BIGL, HSA null model)","doublet: Compound 51 0.25 μM, Venetoclax 0.2 μM",−0.13
same,"Effect size (BIGL, HSA null model)","doublet: Compound 51 0.25 μM, Venetoclax 1 μM",−0.07
same,"Effect size (BIGL, HSA null model)","doublet: Compound 51 1 μM, Venetoclax 0.0003 μM",−0.02
same,"Effect size (BIGL, HSA null model)","doublet: Compound 51 1 μM, Venetoclax 0.0016 μM",−0.03
same,"Effect size (BIGL, HSA null model)","doublet: Compound 51 1 μM, Venetoclax 0.008 μM",−0.07
same,"Effect size (BIGL, HSA null model)","doublet: Compound 51 1 μM, Venetoclax 0.04 μM",−0.08
same,"Effect size (BIGL, HSA null model)","doublet: Compound 51 1 μM, Venetoclax 0.2 μM",−0.07
same,"Effect size (BIGL, HSA null model)","doublet: Compound 51 1 μM, Venetoclax 1 μM",−0.06
same,"Effect size (BIGL, HSA null model)","triplet: Compound 51 0.001 μM, Venetoclax 0.0001 μM, Azacitidine 0.008 μM",0.03
same,"Effect size (BIGL, HSA null model)","triplet: Compound 51 0.001 μM, Venetoclax 0.0002 μM, Azacitidine 0.0016 μM",0.03
same,"Effect size (BIGL, HSA null model)","triplet: Compound 51 0.001 μM, Venetoclax 0.005 μM, Azacitidine 0.04 μM",0.05
same,"Effect size (BIGL, HSA null model)","triplet: Compound 51 0.001 μM, Venetoclax 0.024 μM, Azacitidine 0.2 μM",−0.02
same,"Effect size (BIGL, HSA null model)","triplet: Compound 51 0.001 μM, Venetoclax 0.12 μM, Azacitidine 1 μM",0.01
same,"Effect size (BIGL, HSA null model)","triplet: Compound 51 0.001 μM, Venetoclax 0.6 μM, Azacitidine 5 μM",−0.03
same,"Effect size (BIGL, HSA null model)","triplet: Compound 51 0.001 μM, Venetoclax 3 μM, Azacitidine 25 μM",0.01
same,"Effect size (BIGL, HSA null model)","triplet: Compound 51 0.004 μM, Venetoclax 0.0001 μM, Azacitidine 0.008 μM",0.03
same,"Effect size (BIGL, HSA null model)","triplet: Compound 51 0.004 μM, Venetoclax 0.0002 μM, Azacitidine 0.0016 μM",0.04
same,"Effect size (BIGL, HSA null model)","triplet: Compound 51 0.004 μM, Venetoclax 0.005 μM, Azacitidine 0.04 μM",0.04
same,"Effect size (BIGL, HSA null model)","triplet: Compound 51 0.004 μM, Venetoclax 0.024 μM, Azacitidine 0.2 μM",−0.05
same,"Effect size (BIGL, HSA null model)","triplet: Compound 51 0.004 μM, Venetoclax 0.12 μM, Azacitidine 1 μM",−0.08
same,"Effect size (BIGL, HSA null model)","triplet: Compound 51 0.004 μM, Venetoclax 0.6 μM, Azacitidine 5 μM",−0.03
same,"Effect size (BIGL, HSA null model)","triplet: Compound 51 0.004 μM, Venetoclax 3 μM, Azacitidine 25 μM",0.01
same,"Effect size (BIGL, HSA null model)","triplet: Compound 51 0.0625 μM, Venetoclax 0.0002 μM, Azacitidine 0.0016 μM",0.02
same,"Effect size (BIGL, HSA null model)","triplet: Compound 51 0.25 μM, Venetoclax 0.0001 μM, Azacitidine 0.008 μM",−0.00
same,"Effect size (BIGL, HSA null model)","triplet: Compound 51 0.25 μM, Venetoclax 0.0002 μM, Azacitidine 0.0016 μM",0.00
same,"Effect size (BIGL, HSA null model)","triplet: Compound 51 0.25 μM, Venetoclax 0.005 μM, Azacitidine 0.04 μM",0.11
same,"Effect size (BIGL, HSA null model)","triplet: Compound 51 0.25 μM, Venetoclax 0.024 μM, Azacitidine 0.2 μM",−0.07
same,"Effect size (BIGL, HSA null model)","triplet: Compound 51 0.25 μM, Venetoclax 0.12 μM, Azacitidine 1 μM",−0.14
same,"Effect size (BIGL, HSA null model)","triplet: Compound 51 0.25 μM, Venetoclax 0.6 μM, Azacitidine 5 μM",−0.06
same,"Effect size (BIGL, HSA null model)","triplet: Compound 51 0.25 μM, Venetoclax 3 μM, Azacitidine 25 μM",0.01
same,"Effect size (BIGL, HSA null model)","triplet: Compound 51 1 μM, Venetoclax 0.0001 μM, Azacitidine 0.008 μM",−0.02
same,"Effect size (BIGL, HSA null model)","triplet: Compound 51 1 μM, Venetoclax 0.0002 μM, Azacitidine 0.0016 μM",−0.01
same,"Effect size (BIGL, HSA null model)","triplet: Compound 51 1 μM, Venetoclax 0.005 μM, Azacitidine 0.04 μM",−0.04
same,"Effect size (BIGL, HSA null model)","triplet: Compound 51 1 μM, Venetoclax 0.024 μM, Azacitidine 0.2 μM",−0.08
same,"Effect size (BIGL, HSA null model)","triplet: Compound 51 1 μM, Venetoclax 0.12 μM, Azacitidine 1 μM",−0.14
same,"Effect size (BIGL, HSA null model)","triplet: Compound 51 1 μM, Venetoclax 0.6 μM, Azacitidine 5 μM",−0.05
same,"Effect size (BIGL, HSA null model)","triplet: Compound 51 1 μM, Venetoclax 3 μM, Azacitidine 25 μM",0.02
